Data: patent US20160157490A1, “COMPOSITIONS COMPRISING A GERMINANT AND AN ANTIMICROBIAL AGENT” (priority 2010, published 2016)

Test system: C. difficile spores
Assay: Germination efficacy testing of germinant solution with antimicrobial and preservative (neutraliser, heat shock or ice)
Format: cell-based
Details: for effect on the germinant solution / germination: antimicrobial added to germinant solution; for initiation of germination / sporicidal activity: without amino acids and taurocholate
Experimental: The solution was heated and mixed thoroughly to dissolve all of the components before filtration through a pore size of 0.2 μm for sterilization. (This solution is double the working strength as it is diluted 1:2 during the experiment).
The pH was adjusted to 7 and was autoclaved to sterilize.
For the control, 100 μL of sterilized distilled water was mixed with 100 μL of C. difficile spore suspension. Spore suspensions were also incubated with solutions containing benzalkonium chloride and Tris buffer (without amino acids or taurocholate), benzyl alcohol with Tris buffer (without amino acids and taurocholate) and a solution containing the five amino acids and taurocholate (with no antimicrobials). […] (miniMACS Anaerobic Workstation (Don Whitley Scientific Ltd)).

Row | Molecule | effect on the germinant solution / germination | initiation of germination | sporicidal activity
1 | N=C(NCCCCCCNC(=N)NC(=N)Nc1ccc(Cl)cc1)NC(=N)Nc1ccc(Cl)cc1.O=C(O)[C@H](O)[C@@H](O)[C@H](O)[C@H](O)CO.O=C(O)[C@H](O)[C@@H](O)[C@H](O)[C@H](O)CO [cholorohexidine] | inhibit the germinant solution | – | –
2 | O=C(O)CN(CCN(CC(=O)O)CC(=O)O)CC(=O)O [EDTA] | inhibit the germinant solution | – | –
3 | OCc1ccccc1 [benzyl alcohol] | do not affect germination | did not initiate germination | not sporicidal
4 | benzalkonium chloride | do not affect germination | did not initiate germination | not sporicidal
